Laboratory results taken from publication PMC7309225, “Synthesis, Biodistribution, and Radiation Dosimetry of a Novel mGluR5 Radioligand: ^18F-AZD9272” (ACS Chemical Neuroscience, 2020).

Tests used:
[1] = test system: monoamine oxidase-B (MAO-B); set-up: method as in PMID 23541825; details: NHP brain; cited from earlier work
[2] = Stability of formulated radioligand in PBS (analytical radio-HPLC); assay type: physicochemical
Protocol: The radiochemical purity, identity, and stability of ^18F-AZD9272 was determined by using an analytical HPLC system which included a ACE RP column (C18, 3.9 Ø × 250 mm, 5 μm particle size), Merck-Hitatchi L-7100 Pump, L-7400 UV detector, and GM tube for radioactivity detection (VWR International). The mobile phase CH3CN/0.1% TFA with a gradient HPLC method (10–90% in 8 min) and flow rate of 3 mL/min was used to elute the product. The effluent was monitored with a UV absorbance detector (λ = 270 nm) coupled to a radioactive detector (b-flow, Beckman, Fullerton, CA). The retention time (Rt) of ^18F-AZD9272 was 4–5 min. The identity of ^18F-AZD9272 was confirmed by using HPLC with the coinjection of the authentic nonradioactive AZD9272 (3-fluoro-5-(3-(5-fluoropyridin-2-yl)-1,2,4-oxadiazol-5-yl)benzonitrile) standard.

[3] = test system: mGluR5; assay: Brain PET in cynomolgus monkey (HRRT), VT by 2TC model and Logan GA; assay type: in vivo
Protocol: Two male cynomolgus monkeys (NHP1: 5460 g and NHP2: 7080 g) were used in this study. […] Anesthesia was induced by intramuscular injection of ketamine hydrochloride (approximately 10 mg/kg) at AFL and maintained by intravenous infusion of ketamine (4 mg/kg/h) and xylazine (0.4 mg/kg/h) with a pump. The NHP head was immobilized with a fixation device. […] Heart rate, blood pressure, respiratory rate, and oxygen saturation were continuously monitored throughout the experiments. Fluid balance was maintained by continuous infusion of saline.
PET measurements were conducted using a High Resolution Research Tomograph (HRRT) PET scanner (Siemens Molecular Imaging, Knoxville, TN). […] List-mode data were reconstructed with a series of 34 frames (20 s × 9, 1 min × 3, 3 min × 5, and 6 min × 17), using the ordinary Poisson-3D-ordered subset expectation maximization (OP-3D-OSEM) algorithm with 10 iterations and 16 subsets including modeling of the point spread function (PSF).
An automated blood sampling system (ABSS) was used to measure the continuous radioactivity for the first 3 min after the radioligand injection. Then, blood sampling was performed manually for the measurement of metabolism and radioactivity at 5, 15, 30, 60, 90, and 120 min after the injection. A reversed-phase radio-HPLC method was used to determine the amount of unchanged ^18F-AZD9272 and its radioactive metabolites in NHP plasma.[35]
The regions of interest (ROIs) were delineated manually on the MRI images of each NHP for the anterior cingulate cortex, amygdala, caudate, cerebellum, hippocampus, insular cortex, occipital cortex, prefrontal cortex, putamen, temporal cortex, thalamus, ventral midbrain, and ventral striatum. The MRI of the individual NHP was co-registered to summed PET images of the whole measurement. By applying the co-registration parameters to ROIs, the time–activity curves of brain regions were generated from dynamic PET data.
As the main outcome measure, the total distribution volume (VT) defined as (K1/k2)(k3/k4 + 1) by the two tissue compartment (2TC) model and Logan graphical analysis (GA) was calculated with the metabolite corrected plasma radioactivity as the input function. […] The procedure has been described in detail in a previous publication on [^11C]AZD9272 binding.[33]

N#Cc1cc(F)cc(-c2nc(-c3ccc([18F])cn3)no2)c1 [^18F-AZD9272, 3-fluoro-5-(3-(5-[^18F]fluoropyridin-2-yl)-1,2,4-oxadiazol-5-yl)benzonitrile]
Specific binding inhibited by administration of a MAO-B-selective ligand [1]: approximately 90%
Radiochemical purity after storage (stability) ([2]; 2 h after formulation in sterile phosphate buffered solution (pH = 7.4)): > 99%
Stability in PBS buffered solution ([2]; pH = 7.4, duration of 120 min): stable
VT ([3]; ACC anterior cingulate cortex, 2TC, NHP1): 11.5 mL/cm^3
VT ([3]; ACC anterior cingulate cortex, 2TC, NHP2): 11.2 mL/cm^3
VT ([3]; ACC anterior cingulate cortex, 2TC, mean): 11.4 mL/cm^3
VT ([3]; ACC anterior cingulate cortex, GA, NHP1): 10.2 mL/cm^3
VT ([3]; ACC anterior cingulate cortex, GA, NHP2): 10.7 mL/cm^3
VT ([3]; ACC anterior cingulate cortex, GA, mean): 10.4 mL/cm^3
VT ([3]; AMG amygdala, 2TC, NHP1): 15.0 mL/cm^3
VT ([3]; AMG amygdala, 2TC, NHP2): 14.4 mL/cm^3
VT ([3]; AMG amygdala, 2TC, mean): 14.7 mL/cm^3
VT ([3]; AMG amygdala, GA, NHP1): 12.8 mL/cm^3
VT ([3]; AMG amygdala, GA, NHP2): 13.1 mL/cm^3
VT ([3]; AMG amygdala, GA, mean): 13.0 mL/cm^3
VT ([3]; CAU caudate, 2TC, NHP1): 13.3 mL/cm^3
VT ([3]; CAU caudate, 2TC, NHP2): 13.7 mL/cm^3
VT ([3]; CAU caudate, 2TC, mean): 13.5 mL/cm^3
VT ([3]; CAU caudate, GA, NHP1): 12.1 mL/cm^3
VT ([3]; CAU caudate, GA, NHP2): 13.0 mL/cm^3
VT ([3]; CAU caudate, GA, mean): 12.6 mL/cm^3
VT ([3]; CER cerebellum, 2TC, NHP1): 7.1 mL/cm^3
VT ([3]; CER cerebellum, 2TC, NHP2): 7.9 mL/cm^3
VT ([3]; CER cerebellum, 2TC, mean): 7.5 mL/cm^3
VT ([3]; CER cerebellum, GA, NHP1): 6.6 mL/cm^3
VT ([3]; CER cerebellum, GA, NHP2): 7.6 mL/cm^3
VT ([3]; CER cerebellum, GA, mean): 7.1 mL/cm^3
VT ([3]; HIP hippocampus, 2TC, NHP1): 10.7 mL/cm^3
VT ([3]; HIP hippocampus, 2TC, NHP2): 11.9 mL/cm^3
VT ([3]; HIP hippocampus, 2TC, mean): 11.3 mL/cm^3
VT ([3]; HIP hippocampus, GA, NHP1): 9.7 mL/cm^3
VT ([3]; HIP hippocampus, GA, NHP2): 11.2 mL/cm^3
VT ([3]; HIP hippocampus, GA, mean): 10.5 mL/cm^3
VT ([3]; INS insular cortex, 2TC, NHP1): 9.0 mL/cm^3
VT ([3]; INS insular cortex, 2TC, NHP2): 10.0 mL/cm^3
VT ([3]; INS insular cortex, 2TC, mean): 9.5 mL/cm^3
VT ([3]; INS insular cortex, GA, NHP1): 8.5 mL/cm^3
VT ([3]; INS insular cortex, GA, NHP2): 9.6 mL/cm^3
VT ([3]; INS insular cortex, GA, mean): 9.1 mL/cm^3
Regional brain uptake (PET) ([3]; NHP brain): highest in the striatum, lower in the thalamus and frontal cortex, and lowest in the cerebellum and occipital cortex
VT ([3]; OC occipital cortex, 2TC, NHP1): 5.4 mL/cm^3
VT ([3]; OC occipital cortex, 2TC, NHP2): 6.0 mL/cm^3
VT ([3]; OC occipital cortex, 2TC, mean): 5.7 mL/cm^3
VT ([3]; OC occipital cortex, GA, NHP1): 5.5 mL/cm^3
VT ([3]; OC occipital cortex, GA, NHP2): 5.7 mL/cm^3
VT ([3]; OC occipital cortex, GA, mean): 5.6 mL/cm^3
VT ([3]; PFC prefrontal cortex, 2TC, NHP1): 9.6 mL/cm^3
VT ([3]; PFC prefrontal cortex, 2TC, NHP2): 9.5 mL/cm^3
VT ([3]; PFC prefrontal cortex, 2TC, mean): 9.5 mL/cm^3
VT ([3]; PFC prefrontal cortex, GA, NHP1): 8.9 mL/cm^3
VT ([3]; PFC prefrontal cortex, GA, NHP2): 9.3 mL/cm^3
VT ([3]; PFC prefrontal cortex, GA, mean): 9.1 mL/cm^3
VT ([3]; PUT putamen, 2TC, NHP1): 9.5 mL/cm^3
VT ([3]; PUT putamen, 2TC, NHP2): 10.7 mL/cm^3
VT ([3]; PUT putamen, 2TC, mean): 10.1 mL/cm^3
VT ([3]; PUT putamen, GA, NHP1): 9.3 mL/cm^3
VT ([3]; PUT putamen, GA, NHP2): 10.1 mL/cm^3
VT ([3]; PUT putamen, GA, mean): 9.7 mL/cm^3
VT ([3]; TC temporal cortex, 2TC, NHP1): 7.6 mL/cm^3
VT ([3]; TC temporal cortex, 2TC, NHP2): 8.4 mL/cm^3
VT ([3]; TC temporal cortex, 2TC, mean): 8.0 mL/cm^3
VT ([3]; TC temporal cortex, GA, NHP1): 7.2 mL/cm^3
VT ([3]; TC temporal cortex, GA, NHP2): 8.1 mL/cm^3
VT ([3]; TC temporal cortex, GA, mean): 7.7 mL/cm^3
VT ([3]; THA thalamus, 2TC, NHP1): 11.7 mL/cm^3
VT ([3]; THA thalamus, 2TC, NHP2): 11.4 mL/cm^3
VT ([3]; THA thalamus, 2TC, mean): 11.6 mL/cm^3
VT ([3]; THA thalamus, GA, NHP1): 10.6 mL/cm^3
VT ([3]; THA thalamus, GA, NHP2): 10.8 mL/cm^3
VT ([3]; THA thalamus, GA, mean): 10.7 mL/cm^3
VT ([3]; VM ventral midbrain, 2TC, NHP1): 11.0 mL/cm^3
VT ([3]; VM ventral midbrain, 2TC, NHP2): 8.9 mL/cm^3
VT ([3]; VM ventral midbrain, 2TC, mean): 9.9 mL/cm^3
VT ([3]; VM ventral midbrain, GA, NHP1): 9.1 mL/cm^3
VT ([3]; VM ventral midbrain, GA, NHP2): 8.4 mL/cm^3
VT ([3]; VM ventral midbrain, GA, mean): 8.8 mL/cm^3
VT ([3]; VST ventral striatum, 2TC, NHP1): 17.3 mL/cm^3
VT ([3]; VST ventral striatum, 2TC, NHP2): 17.3 mL/cm^3
VT ([3]; VST ventral striatum, 2TC, mean): 17.3 mL/cm^3
VT ([3]; VST ventral striatum, GA, NHP1): 14.5 mL/cm^3
VT ([3]; VST ventral striatum, GA, NHP2): 15.6 mL/cm^3
VT ([3]; VST ventral striatum, GA, mean): 15.1 mL/cm^3
Maximum whole brain radioactivity concentration ([3]; two cynomolgus monkeys (n = 2), i.v.): 4.9–6.7 % of the injected dose
